Measured values published in patent US8916604B2, “Compositions and methods for epigenetic modification of nucleic acid sequences” (Rutgers, The State University of New Jersey, priority 2011, dated 2014).

Experiments:
TRAMP mice = assay: DIM-supplemented diet, prostate tumorigenesis in TRAMP males; assay type: in vivo, mouse; conditions: for Incidence of palpable tumor: sacrificed at 24 weeks, control 6/19; for Incidence of lymph nodes metastasis: control 5/19; for histological incidence of HG-PIN: control 54%
Experimental: Female hemizygous C57BL/TGN TRAMP mice, line PB Tag 8247NG, and male C57BL/6 mice were purchased from The Jackson Laboratory (Bar Harbor, Me., U.S.A.). The animals were bred on the same genetic background C57BL/6 and maintained in the Laboratory Animal Service facility at Rutgers University. Housing and care of the animals was performed in accordance with the guidelines established by the University's Animal Research Committee consistent with the NIH Guidelines for the Care and Use of Laboratory Animals, Transgenic males for the studies were obtained as [TRAMP×C57BL/6] F1 or [TRAMP×C57BL/6] […] Throughout the experiment the animals were housed in a temperature-control led room (68-72° F.) with a 12 h light dark cycle, at a relative humidity of 45% to 55%.
DIM was obtained from Sigma-Aldrich (St. Louis, Mo., U.S.A.). MN-76A diets containing 1% DIM were prepared by Research Diets Inc. (New Brunswick, N.J., U.S.A.) and stored at −20° C. The dose was chosen based in part on studies reported previously Anderton et al., Drug Metab Dispos. 2004; 32: 632-8; and Xue et al., J Nutr Biochem. 2008; 19: 336-44). In our present study, 1% DIM was well-tolerated with these TRAMP mice. The control TRAMP males (n=19) received A1N-76A diets throughout the experiment while the treated TRAMP males received 1% DIM diet starting from eight weeks of age (n=9) as Group 1 (D-G1) and Group 2 (D-G2) starting from twelve weeks of age (n=8) (FIG. 12A). Fresh diets were added to the cages twice weekly.
TRAMP males were weighed weekly and the overall health of the animals was monitored on a regular basis. All mice were sacrificed at the age of 24 weeks by carbon dioxide euthanasia and the genitourinary apparatus (GU) consisting of the seminal vesicles, prostate, and bladder were isolated for further analyses (FIG. 12B).
The dorso-lateral prostate (n=5) was excised and fixed in 10% formalin for 24 b and then transferred to 70% ethanol for 24 h. After dehydration processing, and embedding with paraffin, tissue sections ([…]) were cut from paraffin embedded prostate tissue and mounted on slides. The sections were stained with Hematoxylin and Eosin (H&E) to examine any neoplastic changes. Sections were evaluated by a histopathologist in a blinded fashion to classify prostatic intra-epithelial neoplasia (PIN) lesion, as we have reported previously (8, 12, 13, 30), Lesions were classified as PIN I, PIN II, PIN III, and PIN IV (Park et al., Am J Pathol. 2002; 161: 727-35). For ease of classification, PIN I and PIN II were combined as low grade PIN (LG-PIN) while PIN III and PIN IV were combined as high grade PIN (HG-PIN) as we have performed previously (8, 12, 30, 31).

PCNA = assay: IHC staining of TRAMP prostate tissue, cell proliferation; assay type: in vivo, mouse; conditions: D-G1 (16 weeks) or D-G2 (12 weeks) vs control
Experimental: Sections (4 μm) were cut from the paraffin embedded prostate tissue and mounted on glass slides. The slides Were deparafinized in xylene and antigen unmasking was performed by applying proteinase K digestion directly on the slides for 15 min. Endogenous peroxidase was blocked by incubating in 3% […] for 5 min, and ApopTag Plus Peroxidase In Situ Apoptosis Detection Kit (Millipore, Temecula, Calif., U.S.A.) was used to detect apoptotic cells. For detection of proliferative cells, monoclonal mouse anti-proliferating cell nuclear antigen (PCNA) antibody (Clone PC10, 1:50, Dako North America, Carpinteria, Calif., U.S.A.) was used (12). The staining was performed following as the manufacturer's protocols. Anti-5-methylcytosine (5-MC) mouse monoclone antibody (Clone 162 33 D3, 1:50, EMD Chemicals, Philadelphia, Pa., U.S.A.) was used to detect genome-wide methylated DNA. […] Quantitation of IHC staining was done using the Aperio ScanScope® GL system according to the manufactures protocol (Aperio Technologies Inc., Vista, Calif., U.S.A.). […] The Aperio ImageScopoe software (v 10.1.3.2028) allowed the unbiased quantification and quantitative analysis of the IHC staining of biomarkers of prostate tumor samples obtained from untreated control versus the treated TRAMP mice.

[1] = D-G2: 1% DIM diet from 12 weeks of age, p<0.05

c1ccc2c(Cc3c[nH]c4ccccc34)c[nH]c2c1 [DIM, 3,3′-diindolylmethane]
Incidence of palpable tumor (TRAMP mice; D-G1: 1% DIM diet from 8 weeks of age): 1/9^a, | Incidence of lymph nodes metastasis (TRAMP mice; D-G1: 1% DIM diet from 8 weeks of age, p<0.05): 0/9^b, # | histological incidence of carcinoma (TRAMP mice; D-G1, control 46%): 20% | histological incidence of HG-PIN (TRAMP mice; D-G1): 20% | wet genitourinary apparatus (GU) weight (TRAMP mice; D-G1 and D-G2 vs non-treated control, p<0.05): statistically significant decrease | histological incidence of LG-PIN (TRAMP mice; D-G2): 20% | histological incidence of carcinoma (TRAMP mice; D-G2): no carcinoma | Incidence of palpable tumor (TRAMP mice; [1]): 0/8^a, * | Incidence of lymph nodes metastasis (TRAMP mice; [1]): 0/8^b, # | histological incidence of HG-PIN (TRAMP mice; D-G2): 80% | incidence of lymph node metastasis (TRAMP mice; DIM-treated mice overall vs 26.3% in control): 0% | percentage of palpable tumor (TRAMP mice; DIM-treated mice overall vs 31.6% in control): 5.8% | PCNA staining (cell proliferation) (PCNA): significantly lower levels
